Each compound was assayed against T1, IgE-Tb / soluble IgE receptor FcεRIα with a Y131A mutation (Homo sapiens, UniProt P01854, N146Q/N252Q) (assay: in vitro FRET assay: binding of IgE-Tb to receptor FcεRIα-Y131A-AF488 and its inhibition by compounds). Settings: 5 nM IgE-Tb, 25 nM FcεRIα-Y131A-AF488, 2 hours at room temperature; read-out: FRET IC50 range.
T1 construct: fused on or other part: Terbium chelate (LanthaScreen amine-reactive) on IgE-Fc; Alexa Fluor 488 hydrazide on the oxidised glycans of sFcεRIα; Both are labels and no part of the key
T1 sequence (P01854 104-427 N146Q/N252Q): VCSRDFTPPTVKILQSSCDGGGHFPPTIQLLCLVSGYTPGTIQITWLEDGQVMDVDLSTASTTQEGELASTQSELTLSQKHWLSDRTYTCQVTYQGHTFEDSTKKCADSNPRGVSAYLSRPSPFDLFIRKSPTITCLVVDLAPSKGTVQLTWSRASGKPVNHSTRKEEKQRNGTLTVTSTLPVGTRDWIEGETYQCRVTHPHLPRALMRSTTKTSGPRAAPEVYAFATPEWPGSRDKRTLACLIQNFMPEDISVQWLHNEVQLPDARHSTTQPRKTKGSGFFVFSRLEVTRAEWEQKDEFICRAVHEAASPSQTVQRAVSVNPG
T1 sequence (P12319 26-201 Y156A partner): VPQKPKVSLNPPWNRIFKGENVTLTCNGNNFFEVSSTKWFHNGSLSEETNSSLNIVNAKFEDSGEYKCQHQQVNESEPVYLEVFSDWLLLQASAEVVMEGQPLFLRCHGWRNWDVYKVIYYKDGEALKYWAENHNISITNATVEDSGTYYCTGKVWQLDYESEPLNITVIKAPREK

Structure (SMILES)	IC50 [µM]
CC(C)CNS(=O)(=O)c1c2c(cc3cnc(C4CC4)cc13)C[C@H](Nc1nncn1-c1cccnc1)C2 (single isomer, unassigned) [Example 3, (7R*)-3-cyclopropyl-N-(2-methylpropyl)-7-[(4-pyridin-3-yl-1,2,4-triazol-3-yl)amino]-7,8-dihydro-6H-cyclopenta[g]isoquinoline-5-sulfonamide [* or S]]	0.01 to 0.05
Cn1nnc(-c2ccc(N[C@@H]3Cc4cc5cnc(C6CC6)cc5c(S(=O)(=O)NC5CC(F)C5)c4C3)cn2)n1 (stereo partly drawn) [Example 1, (7R)-3-cyclopropyl-N-(3-fluorocyclobutyl)-7-[[6-(2-methyltetrazol-5-yl)pyridin-3-yl]amino]-7,8-dihydro-6H-cyclopenta[g]isoquinoline-5-sulfonamide]	0.001 to 0.01
CC(C)CNS(=O)(=O)c1c2c(cc3cnc(C4CC4)cc13)CC1(c3ncc(-c4cccnc4)[nH]3)CC21 (stereo not drawn) [Example 2, 13-cyclopropyl-˜{N}-(2-methylpropyl)-6-(5-pyridin-3-yl-1˜{H}-imidazol-2-yl)-12-azatetracyclo[8.4.0.0^{3,8}.0^{4,6}]tetradeca-1,3 (8),9,11,13-pentaene-2-sulfonamide]	0.01 to 0.05
CC(C)CNS(=O)(=O)c1c2c(cc3cnc(C4CC4)cc13)CC(NC1=CC(=O)CC1)C2 (stereo not drawn) [Example 4, 3-cyclopropyl-N-(2-methylpropyl)-7-[(3-oxocyclopenten-1-yl)amino]-7,8-dihydro-6H-cyclopenta[g]isoquinoline-5-sulfonamide]	0.01 to 0.05
CC(C)CNS(=O)(=O)c1c2c(cc3cnc(C4CC4)cc13)CC(Nc1nncn1CC1CC1)C2 (stereo not drawn) [Example 5, 3-cyclopropyl-7-[[4-(cyclopropylmethyl)-1,2,4-triazol-3-yl]amino]-N-(2-methylpropyl)-7,8-dihydro-6H-cyclopenta[g]isoquinoline-5-sulfonamide]	0.01 to 0.05
CC(C)(F)CNS(=O)(=O)c1c2c(cc3cnc(C4CC4)cc13)CC(NC(=O)c1cccnc1)C2 (stereo not drawn) [Example 6, N-[3-cyclopropyl-5-[(2-fluoro-2-methylpropyl)sulfamoyl]-7,8-dihydro-6H-cyclopenta[g]isoquinolin-7-yl]pyridine-3-carboxamide]	0.05 to 0.1
CC(C)(F)CNS(=O)(=O)c1c2c(cc3cnc(C4CC4)cc13)CC(NC1=CC(=O)CCC1)C2 (stereo not drawn) [Example 7, 3-cyclopropyl-N-(2-fluoro-2-methylpropyl)-7-[(3-oxocyclohexen-1-yl)amino]-7,8-dihydro-6H-cyclopenta[g]isoquinoline-5-sulfonamide]	0.05 to 0.1
CCOC(=O)c1ncn([C@H]2Cc3cc4cnc(C5CC5)cc4c(S(=O)(=O)NCC(C)(C)F)c3C2)c1N [Example 8, ethyl 5-amino-1-[(7S)-3-cyclopropyl-5-[(2-fluoro-2-methylpropyl)sulfamoyl]-7,8-dihydro-6H-cyclopenta[g]isoquinolin-7-yl]imidazole-4-carboxylate]	0.1 to 2
CC1(CNS(=O)(=O)c2c3c(cc4cnc(C5CC5)cc24)CC(C(=O)Nc2cccnc2)C3)COC1 (stereo not drawn) [Example 9, 3-cyclopropyl-5-[(3-methyloxetan-3-yl)methylsulfamoyl]-N-pyridin-3-yl-7,8-dihydro-6H-cyclopenta[g]isoquinoline-7-carboxamide]	0.1 to 2
Cc1ccc(Oc2cncc(N[C@@H]3Cc4cc5cnc(C6CC6)cc5c(S(=O)(=O)NCC(C)(C)F)c4C3)c2)cn1 [Example 10, (7R)-3-cyclopropyl-N-(2-fluoro-2-methylpropyl)-7-[[5-(6-methylpyridin-3-yl)oxypyridin-3-yl]amino]-7,8-dihydro-6H-cyclopenta[g]isoquinoline-5-sulfonamide]	0.001 to 0.01
CC(C)(F)CNS(=O)(=O)c1c2c(cc3cnc(C4CC4)cc13)C[C@@H](Nc1ccc(C(N)=O)nc1)C2 [Example 11, 5-[[(7R)-3-cyclopropyl-5-[(2-fluoro-2-methylpropyl)sulfamoyl]-7,8-dihydro-6H-cyclopenta[g]isoquinolin-7-yl]amino]pyridine-2-carboxamide]	0.01 to 0.05
CC(C)(F)CNS(=O)(=O)c1c2c(cc3cnc(C4CC4)cc13)C[C@@H](Nc1ccc(CO)nc1)C2 [Example 12, (7R)-3-cyclopropyl-N-(2-fluoro-2-methylpropyl)-7-[[6-(hydroxymethyl)pyridin-3-yl]amino]-7,8-dihydro-6H-cyclopenta[g]isoquinoline-5-sulfonamide]	0.01 to 0.05
Cn1nnc(-c2ccc(NC3Cc4cc5cnc(C6CC6)cc5c(S(=O)(=O)NCC5(F)COC5)c4C3)cn2)n1 (stereo not drawn) [Example 13, 3-cyclopropyl-N-[(3-fluorooxetan-3-yl)methyl]-7-[[6-(2-methyltetrazol-5-yl)pyridin-3-yl]amino]-7,8-dihydro-6H-cyclopenta[g]isoquinoline-5-sulfonamide]	0.01 to 0.05
Cn1cc2c(NC3Cc4cc5cnc(C6CC6)cc5c(S(=O)(=O)NCC5(O)COC5)c4C3)cncc2n1 (stereo not drawn) [Example 14, 3-cyclopropyl-N-[(3-hydroxyoxetan-3-yl)methyl]-7-[(2-methylpyrazolo[3,4-c]pyridin-4-yl)amino]-7,8-dihydro-6H-cyclopenta[g]isoquinoline-5-sulfonamide]	0.01 to 0.05
CC(C)(F)CNS(=O)(=O)c1c2c(cc3cnc(C4CC4)cc13)C[C@@H](Nc1ccc(C(=O)O)nc1)C2 [Example 15, 5-[[(7R)-3-cyclopropyl-5-[(2-fluoro-2-methylpropyl)sulfamoyl]-7,8-dihydro-6H-cyclopenta[g]isoquinolin-7-yl]amino]pyridine-2-carboxylic acid]	0.01 to 0.05
COc1cc(Oc2cncc(N[C@@H]3Cc4cc5cnc(C6CC6)cc5c(S(=O)(=O)NCC(C)(C)F)c4C3)c2)ccn1 [Example 16, (7R)-3-cyclopropyl-N-(2-fluoro-2-methylpropyl)-7-[[5-(2-methoxypyridin-4-yl)oxypyridin-3-yl]amino]-7,8-dihydro-6H-cyclopenta[g]isoquinoline-5-sulfonamide]	0.05 to 0.1
CC(O)CNS(=O)(=O)c1c2c(cc3cnc(C4CC4)cc13)CCC2 (stereo not drawn) [Example 17, 3-cyclopropyl-N-(2-hydroxypropyl)-7,8-dihydro-6H-cyclopenta[g]isoquinoline-5-sulfonamide]	0.1 to 2
CC(C)(F)CNS(=O)(=O)c1c2c(cc3cnc(C4CC4)cc13)CC(Nc1cncnc1Nc1cccnc1)C2 (stereo not drawn) [Example 18, 3-cyclopropyl-N-(2-fluoro-2-methylpropyl)-7-[[4-(pyridin-3-ylamino)pyrimidin-5-yl]amino]-7,8-dihydro-6H-cyclopenta[g]isoquinoline-5-sulfonamide]	0.001 to 0.01
CC(C)(F)CNS(=O)(=O)c1c2c(cc3cnc(C4CC4)cc13)CC(Nc1cncnc1NCC1CC1)C2 (stereo not drawn) [Example 19, 3-cyclopropyl-7-[[4-(cyclopropylmethylamino)pyrimidin-5-yl]amino]-N-(2-fluoro-2-methylpropyl)-7,8-dihydro-6H-cyclopenta[g]isoquinoline-5-sulfonamide]	0.01 to 0.05
CC(C)(F)CNS(=O)(=O)c1c2c(cc3cnc(C4CC4)cc13)CC(Nc1nc3ccccc3[nH]1)C2 (stereo not drawn) [Example 20, 7-(1H-benzimidazol-2-ylamino)-3-cyclopropyl-N-(2-fluoro-2-methylpropyl)-7,8-dihydro-6H-cyclopenta[g]isoquinoline-5-sulfonamide]	0.01 to 0.05
CC(C)CNS(=O)(=O)c1c2c(c(N)c3cnc(C4CC4)cc13)CCC2 [Example 21, 9-amino-3-cyclopropyl-N-(2-methylpropyl)-7,8-dihydro-6H-cyclopenta[g]isoquinoline-5-sulfonamide]	0.05 to 0.1
